According to PubChem BioAssay (NCI):
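Cells were grown in 96-well plates and exposed to each compound for 48 hours at five concentrations; endpoints were interpolated linearly between bracketing concentrations, or set to the highest concentration if not reached. TGI denotes the concentration required for complete inhibition of growth.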

Assays:
Assay in all cases: inhibition of tumour cell growth, NCI panel, 48 h
ACHN renal = test system: ACHN renal
SW-620 colon = test system: SW-620 colon
SNB-75 CNS = test system: SNB-75 CNS
M14 melanoma = test system: M14 melanoma
DMS 273 small cell lung = test system: DMS 273 small cell lung
OVCAR-8 ovarian = test system: OVCAR-8 ovarian
RPMI-8226 leukemia = test system: RPMI-8226 leukemia
786-0 renal = test system: 786-0 renal
HL-60(TB) leukemia = test system: HL-60(TB) leukemia
SF-295 CNS = test system: SF-295 CNS
LXFL 529 NSCLC = test system: LXFL 529 NSCLC
HOP-18 NSCLC = test system: HOP-18 NSCLC
SN12C renal = test system: SN12C renal
HCC-2998 colon = test system: HCC-2998 colon
OVCAR-4 ovarian = test system: OVCAR-4 ovarian
EKVX NSCLC = test system: EKVX NSCLC
RXF 393 renal = test system: RXF 393 renal
MALME-3M melanoma = test system: MALME-3M melanoma
SR leukemia = test system: SR leukemia
HCT-116 colon = test system: HCT-116 colon
SK-MEL-28 melanoma = test system: SK-MEL-28 melanoma
K-562 leukemia = test system: K-562 leukemia
CAKI-1 renal = test system: CAKI-1 renal
TK-10 renal = test system: TK-10 renal
A549 NSCLC = test system: A549 NSCLC
UO-31 renal = test system: UO-31 renal
HOP-92 NSCLC = test system: HOP-92 NSCLC
SK-MEL-2 melanoma = test system: SK-MEL-2 melanoma
CCRF-CEM leukemia = test system: CCRF-CEM leukemia
OVCAR-3 ovarian = test system: OVCAR-3 ovarian
MOLT-4 leukemia = test system: MOLT-4 leukemia
NCI-H460 lung = test system: NCI-H460 lung
HOP-62 NSCLC = test system: HOP-62 NSCLC
KM12 colon = test system: KM12 colon
DLD-1 colon = test system: DLD-1 colon
XF 498 CNS = test system: XF 498 CNS
NCI-H23 lung = test system: NCI-H23 lung
HT29 colon = test system: HT29 colon
NCI-H522 lung = test system: NCI-H522 lung
UACC-62 melanoma = test system: UACC-62 melanoma
SF-539 CNS = test system: SF-539 CNS
KM20L2 colon = test system: KM20L2 colon
NCI-H226 lung = test system: NCI-H226 lung
SF-268 CNS = test system: SF-268 CNS
SNB-19 CNS = test system: SNB-19 CNS
UACC-257 melanoma = test system: UACC-257 melanoma
HCT-15 colon = test system: HCT-15 colon
COLO 205 colon = test system: COLO 205 colon
DMS 114 small cell lung = test system: DMS 114 small cell lung
U251 CNS = test system: U251 CNS
SK-MEL-5 melanoma = test system: SK-MEL-5 melanoma
LOX IMVI melanoma = test system: LOX IMVI melanoma
OVCAR-5 ovarian = test system: OVCAR-5 ovarian
M19-MEL melanoma = test system: M19-MEL melanoma
SK-OV-3 ovarian = test system: SK-OV-3 ovarian
IGROV1 ovarian = test system: IGROV1 ovarian
A498 renal = test system: A498 renal
SNB-78 CNS = test system: SNB-78 CNS

Structure (SMILES): O=C1c2ccccc2C(=O)c2[nH]c(Cc3ccccc3F)nc21
- TGI (ACHN renal): > 100 µM
- TGI (SW-620 colon): > 100 µM
- TGI (SNB-75 CNS): > 100 µM
- TGI (M14 melanoma): > 100 µM
- TGI (DMS 273 small cell lung): > 100 µM
- TGI (OVCAR-8 ovarian): > 100 µM
- TGI (RPMI-8226 leukemia): > 100 µM
- TGI (786-0 renal): > 100 µM
- TGI (HL-60(TB) leukemia): > 100 µM
- TGI (SF-295 CNS): > 100 µM
- TGI (LXFL 529 NSCLC): > 100 µM
- TGI (HOP-18 NSCLC): > 100 µM
- TGI (SN12C renal): > 100 µM
- TGI (HCC-2998 colon): > 100 µM
- TGI (OVCAR-4 ovarian): > 100 µM
- TGI (EKVX NSCLC): > 100 µM
- TGI (RXF 393 renal): 75.5 µM
- TGI (MALME-3M melanoma): > 100 µM
- TGI (SR leukemia): > 100 µM
- TGI (HCT-116 colon): > 100 µM
- TGI (SK-MEL-28 melanoma): > 100 µM
- TGI (K-562 leukemia): > 100 µM
- TGI (CAKI-1 renal): > 100 µM
- TGI (TK-10 renal): 88.3 µM
- TGI (A549 NSCLC): > 100 µM
- TGI (UO-31 renal): > 100 µM
- TGI (HOP-92 NSCLC): > 100 µM
- TGI (SK-MEL-2 melanoma): > 100 µM
- TGI (CCRF-CEM leukemia): > 100 µM
- TGI (OVCAR-3 ovarian): 39 µM
- TGI (MOLT-4 leukemia): > 100 µM
- TGI (NCI-H460 lung): > 100 µM
- TGI (HOP-62 NSCLC): > 100 µM
- TGI (KM12 colon): > 100 µM
- TGI (DLD-1 colon): 82.5 µM
- TGI (XF 498 CNS): > 100 µM
- TGI (NCI-H23 lung): > 100 µM
- TGI (HT29 colon): > 100 µM
- TGI (NCI-H522 lung): 70.9 µM
- TGI (UACC-62 melanoma): > 100 µM
- TGI (SF-539 CNS): 91.1 µM
- TGI (KM20L2 colon): > 100 µM
- TGI (NCI-H226 lung): > 100 µM
- TGI (SF-268 CNS): > 100 µM
- TGI (SNB-19 CNS): > 100 µM
- TGI (UACC-257 melanoma): > 100 µM
- TGI (HCT-15 colon): > 100 µM
- TGI (COLO 205 colon): > 100 µM
- TGI (DMS 114 small cell lung): > 100 µM
- TGI (U251 CNS): > 100 µM

Structure (SMILES): CCN(C(C)=N)c1ccccc1
- TGI (SK-MEL-5 melanoma): > 100 µM
- TGI (ACHN renal): > 100 µM
- TGI (SW-620 colon): > 100 µM
- TGI (SNB-75 CNS): > 100 µM
- TGI (M14 melanoma): > 100 µM
- TGI (OVCAR-8 ovarian): > 100 µM
- TGI (RPMI-8226 leukemia): > 100 µM
- TGI (786-0 renal): > 100 µM
- TGI (HL-60(TB) leukemia): > 100 µM
- TGI (SF-295 CNS): > 100 µM
- TGI (LXFL 529 NSCLC): > 100 µM
- TGI (HOP-18 NSCLC): > 100 µM
- TGI (SN12C renal): > 100 µM
- TGI (HCC-2998 colon): > 100 µM
- TGI (OVCAR-4 ovarian): > 100 µM
- TGI (EKVX NSCLC): > 100 µM
- TGI (RXF 393 renal): > 100 µM
- TGI (MALME-3M melanoma): > 100 µM
- TGI (HCT-116 colon): > 100 µM
- TGI (LOX IMVI melanoma): > 100 µM
- TGI (SK-MEL-28 melanoma): > 100 µM
- TGI (K-562 leukemia): > 100 µM
- TGI (CAKI-1 renal): > 100 µM
- TGI (TK-10 renal): > 100 µM
- TGI (OVCAR-5 ovarian): > 100 µM
- TGI (M19-MEL melanoma): > 100 µM
- TGI (A549 NSCLC): > 100 µM
- TGI (UO-31 renal): > 100 µM
- TGI (HOP-92 NSCLC): > 100 µM
- TGI (SK-MEL-2 melanoma): > 100 µM
- TGI (CCRF-CEM leukemia): > 100 µM
- TGI (OVCAR-3 ovarian): > 100 µM
- TGI (SK-OV-3 ovarian): > 100 µM
- TGI (MOLT-4 leukemia): > 100 µM
- TGI (IGROV1 ovarian): > 100 µM
- TGI (NCI-H460 lung): > 100 µM
- TGI (HOP-62 NSCLC): > 100 µM
- TGI (KM12 colon): > 100 µM
- TGI (DLD-1 colon): > 100 µM
- TGI (XF 498 CNS): > 100 µM
- TGI (NCI-H23 lung): > 100 µM
- TGI (NCI-H522 lung): > 100 µM
- TGI (A498 renal): > 100 µM
- TGI (UACC-62 melanoma): > 100 µM
- TGI (SF-539 CNS): > 100 µM
- TGI (SNB-78 CNS): > 100 µM
- TGI (KM20L2 colon): > 100 µM
- TGI (NCI-H226 lung): > 100 µM
- TGI (SF-268 CNS): > 100 µM
- TGI (SNB-19 CNS): > 100 µM
- TGI (UACC-257 melanoma): 44.3 µM
- TGI (HCT-15 colon): > 100 µM
- TGI (COLO 205 colon): > 100 µM
- TGI (DMS 114 small cell lung): > 100 µM
- TGI (U251 CNS): > 100 µM
